In ChEMBL document CHEMBL1127097, “Tetrazole amino acids as competitive NMDA antagonists” (Bioorg Med Chem Lett, 1993):
Values belong to the compound of their own block, whether it stands above or below them.

Experiments:
[1] = molecular target: Glutamate [NMDA] receptor; test: Tested in vitro for the affinity against NMDA receptor in a cortical wedge assay; type: protein-complex assay
[2] = molecular target: Glutamate [NMDA] receptor; test: Tested in vitro for the affinity against NMDA receptor by examining its ability to inhibit [3H]-CGS-19,755 binding; type: protein-complex assay
Mus musculus = test: Minimum effective dose tested by ip administration for its ability to block NMDA induced lethality in mice.; type: functional; conditions: read-out: MED
[3] = test system: Glutamate [NMDA] receptor; test: Tested in vitro for the affinity against NMDA receptor in a cortical wedge assay; A- compound acts as antagonist; type: functional
[4] = test system: Glutamate [NMDA] receptor; test: Tested in vitro for the affinity against NMDA receptor in a cortical wedge assay; A- Compound acted as […]; type: functional

Structure (SMILES): O=C(O)C1CN(CCCP(=O)(O)O)CCN1 (centres undefined)
IC50 [1]: 0.6 µM
IC50 [2]: 0.22 µM
minimal effective dose (Mus musculus): 2.5 mg/kg

Structure (SMILES): Cl.NC(CCCCc1nnn[nH]1)C(=O)O (centres undefined)
IC50 [3]: Antagonist
IC50 [2]: 10 µM
minimal effective dose (Mus musculus): > 160 mg/kg

Structure (SMILES): N[C@@H](CCc1nnn[nH]1)C(=O)O
IC50 [2]: 1.6 µM
minimal effective dose (Mus musculus): > 160 mg/kg
IC50 [4]: Agonist

Structure (SMILES): N[C@H](CCCCCP(=O)(O)O)C(=O)O
IC50 [1]: 11.1 µM
IC50 [2]: 0.461 µM
minimal effective dose (Mus musculus): 160 mg/kg

Structure (SMILES): N[C@@H](Cc1nnn[nH]1)C(=O)O
IC50 [1]: > 100 µM
IC50 [2]: 0.639 µM
minimal effective dose (Mus musculus): > 160 mg/kg

Structure (SMILES): O=C(O)C1CN(CCCCc2nnn[nH]2)CCN1 (centres undefined)
IC50 [2]: > 10 µM
minimal effective dose (Mus musculus): > 80 mg/kg

Structure (SMILES): Cl.NC(CCCCCCc1nnn[nH]1)C(=O)O (centres undefined)
IC50 [1]: > 100 µM
IC50 [2]: > 10 µM
minimal effective dose (Mus musculus): > 160 mg/kg

Structure (SMILES): Cl.NC(CCCc1nnn[nH]1)C(=O)O (centres undefined)
IC50 [3]: Antagonist
IC50 [2]: 1.05 µM
minimal effective dose (Mus musculus): > 160 mg/kg

IC50 [1]: 1.6 µM
IC50 [2]: 0.054 µM
Structure (SMILES): O=C(O)[C@@H]1C[C@H](CP(=O)(O)O)CCN1 (single isomer, unassigned) [SELFOTEL]

Structure (SMILES): O=C(O)C1CN(CCCc2nnn[nH]2)CCN1 (centres undefined)
IC50 [1]: 16.3 µM
IC50 [2]: 3.15 µM
minimal effective dose (Mus musculus): 40 mg/kg

Structure (SMILES): O=C(O)[C@H]1C[C@@H](Cc2nnn[nH]2)CCN1
IC50 [1]: 4.2 µM
IC50 [2]: 0.107 µM
minimal effective dose (Mus musculus): 5 mg/kg

Structure (SMILES): N[C@H](CCc1nnn[nH]1)C(=O)O
IC50 [1]: 31.6 µM
IC50 [2]: 0.925 µM
minimal effective dose (Mus musculus): > 160 mg/kg

Structure (SMILES): N[C@H](Cc1nnn[nH]1)C(=O)O
IC50 [1]: > 100 µM
IC50 [2]: 0.685 µM
minimal effective dose (Mus musculus): > 160 mg/kg

Structure (SMILES): O=C(O)C1CN(CCc2nnn[nH]2)CCN1 (centres undefined)
IC50 [1]: 4.7 µM
IC50 [2]: 0.781 µM
minimal effective dose (Mus musculus): 160 mg/kg

Structure (SMILES): O=C(O)C1CN(Cc2nn[nH]n2)CCN1 (centres undefined)
IC50 [1]: 8.2 µM
IC50 [2]: 1.67 µM
minimal effective dose (Mus musculus): > 80 mg/kg

Structure (SMILES): NC(CCCCCc1nnn[nH]1)C(=O)O (centres undefined)
IC50 [1]: > 100 µM
IC50 [2]: > 10 µM
minimal effective dose (Mus musculus): > 160 mg/kg

Structure (SMILES): N[C@H](CCCP(=O)(O)O)C(=O)O
IC50 [1]: 3.7 µM
IC50 [2]: 0.177 µM
minimal effective dose (Mus musculus): 160 mg/kg
